ChEMBL document CHEMBL1201862, “PubChem BioAssay data set” (2004)
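Protocol summary: plate cells (96-well), add compound at 5 concentrations, incubate 48 h, interpolate endpoints linearly. Here, GI50 denotes the concentration required for 50% inhibition of growth.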 Active and inactive are the calls of the source. No stated cut-off is given here; in the data, active = GI50 up to about 1.1 µM and inactive = higher. Square brackets hold non-standard residues; d marks the D form. Peptide text beside a SMILES is read from it.

Key:
Assay in all cases: growth of human tumour cells (NCI), 48 h
[1] = tested on: A498
[2] = tested on: BT-549
[3] = tested on: CAKI-1
[4] = tested on: DU-145
[5] = tested on: HCC 2998
[6] = tested on: HCT-15
[7] = tested on: HOP-62
[8] = tested on: HOP-92
[9] = tested on: K562
[10] = tested on: MCF7
[11] = tested on: MDA-MB-231
[12] = tested on: MDA-MB-435
[13] = tested on: NCI/ADR-RES
[14] = tested on: OVCAR-4
[15] = tested on: OVCAR-5
[16] = tested on: RPMI-8226
[17] = tested on: SF-295
[18] = tested on: TK-10
[19] = tested on: UO-31

| Compound | GI50 [1] | GI50 [2] | GI50 [3] | GI50 [4] | GI50 [5] | GI50 [6] | GI50 [7] | GI50 [8] | GI50 [9] | GI50 [10] | GI50 [11] | GI50 [12] | GI50 [13] | GI50 [14] | GI50 [15] | GI50 [16] | GI50 [17] | GI50 [18] | GI50 [19] |
| --- | --- | --- | --- | --- | --- | --- | --- | --- | --- | --- | --- | --- | --- | --- | --- | --- | --- | --- | --- |
| CNC(=O)OCc1cnc([N+](=O)[O-])n1C | > 100 µM (inactive) | > 100 µM (inactive) | > 100 µM (inactive) | > 100 µM (inactive) | > 100 µM (inactive) | > 100 µM | > 100 µM (inactive) | > 100 µM (inactive) | > 100 µM (inactive) | > 100 µM (inactive) | > 100 µM (inactive) | > 100 µM (inactive) | > 100 µM (inactive) | > 100 µM (inactive) | > 100 µM (inactive) | > 100 µM (inactive) | > 100 µM (inactive) | > 100 µM (inactive) | > 100 µM (inactive) |
| COC(=O)/C=C/c1cnc2c(c1)oc(=O)n2C | > 100 µM (inactive) | > 100 µM (inactive) | > 100 µM (inactive) | > 100 µM (inactive) | > 100 µM (inactive) | > 100 µM | > 100 µM (inactive) | > 100 µM (inactive) | > 100 µM (inactive) | > 100 µM (inactive) | > 100 µM (inactive) | > 100 µM (inactive) | > 100 µM (inactive) | > 100 µM (inactive) | > 100 µM (inactive) | > 100 µM (inactive) | > 100 µM (inactive) | > 100 µM (inactive) | > 100 µM (inactive) |
| Clc1ccc(C2=Cc3nc2c(-c2ccccc2)c2ccc([nH]2)c(-c2ccccc2)c2nc(c(-c4ccccc4)c4ccc([nH]4)c3-c3ccccc3)C=C2)cc1 | > 62.5 µM (inactive) | > 62.5 µM (inactive) | 13.9 µM (inactive) | > 62.5 µM (inactive) | > 62.5 µM (inactive) | > 62.5 µM | > 62.5 µM (inactive) | 61 µM (inactive) | > 62.5 µM (inactive) | > 62.5 µM (inactive) | > 62.5 µM (inactive) | > 62.5 µM (inactive) | > 62.5 µM (inactive) | > 62.5 µM (inactive) | > 62.5 µM (inactive) | > 62.5 µM (inactive) | > 62.5 µM (inactive) | > 62.5 µM (inactive) | > 62.5 µM (inactive) |
| N=C(N)NS(=O)(=O)c1ccc(NC(=O)c2ccc3nc4ccccc4c(Nc4ccc(S(=O)(=O)N=C(N)N)cc4)c3c2)cc1 | > 100 µM (inactive) | > 100 µM (inactive) | > 100 µM (inactive) | > 100 µM (inactive) | > 100 µM (inactive) | > 100 µM | > 100 µM (inactive) | > 100 µM (inactive) | > 100 µM (inactive) | > 100 µM (inactive) | > 100 µM (inactive) | > 100 µM (inactive) | > 100 µM (inactive) | > 100 µM (inactive) | > 100 µM (inactive) | > 100 µM (inactive) | > 100 µM (inactive) | > 100 µM (inactive) | > 100 µM (inactive) |
| O=C1Nc2cc(Cl)ccc2C(=O)N2CCC[C@@H]12 | > 100 µM (inactive) | > 100 µM (inactive) | > 100 µM (inactive) | > 100 µM (inactive) | > 100 µM (inactive) | > 100 µM | > 100 µM (inactive) | > 100 µM (inactive) | > 100 µM (inactive) | > 100 µM (inactive) | > 100 µM (inactive) | > 100 µM (inactive) | > 100 µM (inactive) | > 100 µM (inactive) | > 100 µM (inactive) | > 100 µM (inactive) | > 100 µM (inactive) | > 100 µM (inactive) | > 100 µM (inactive) |
| Cc1cccc(/N=N/c2ccc(O)c(CN(C)C)c2)c1 | 18.1 µM (inactive) | 17.2 µM (inactive) | 20.7 µM (inactive) | > 10 µM (inactive) | 16.4 µM (inactive) | 11.2 µM | 11.1 µM (inactive) | 6.17 µM (inactive) | 3.33 µM (inactive) | 39.1 µM (inactive) | 5.6 µM (inactive) | 15.2 µM (inactive) | 16.9 µM (inactive) | 55.3 µM (inactive) | 33.8 µM (inactive) | 32 µM (inactive) | 28.4 µM (inactive) | 22.9 µM (inactive) | 7.35 µM (inactive) |
| N=C(N)NCCC[C@H]1NC(=O)[C@@H](CCC(=O)O)NC(=O)[C@@H](CC(=O)O)NC(=O)[C@@H](CCC(=O)O)NC(=O)[C@H](Cc2c[nH]c3ccccc23)NC1=O (cyclo(W[dE][dD][dE][dR])) | > 7.5 µM (inactive) | > 7.5 µM (inactive) | > 7.5 µM (inactive) | > 7.5 µM (inactive) | > 7.5 µM (inactive) | > 7.5 µM | > 7.5 µM (inactive) | > 7.5 µM (inactive) | > 7.5 µM (inactive) | > 7.5 µM (inactive) | > 7.5 µM (inactive) | > 7.5 µM (inactive) | > 7.5 µM (inactive) | > 7.5 µM (inactive) | > 7.5 µM (inactive) | > 7.5 µM (inactive) | > 7.5 µM (inactive) | > 7.5 µM (inactive) | > 7.5 µM (inactive) |
| CCCCCCCCCCCCCCCCCCNc1ccn(C2OC(COP(=O)(O)OCC3OC(n4cc(C)c(=O)[nH]c4=O)CC3F)C(O)C2O)c(=O)n1 (stereo not given) | 13.8 µM (inactive) | 5.19 µM (inactive) | 8.73 µM (inactive) | 11.4 µM (inactive) | 5.7 µM (inactive) | 6.01 µM | 9.75 µM (inactive) | 18.4 µM (inactive) | 8.55 µM (inactive) | 9.46 µM (inactive) | 10.7 µM (inactive) | 7.91 µM (inactive) | 30.9 µM (inactive) | 9.02 µM (inactive) | 2.56 µM (inactive) | 3.52 µM (inactive) | 9.89 µM (inactive) | 3.08 µM (inactive) | 13.2 µM (inactive) |
| CCOC(=O)C1CC(C(=O)c2ccccc2)N2c3ccccc3-c3ccccc3C12 (stereo not given) | > 100 µM (inactive) | 57.3 µM (inactive) | > 100 µM (inactive) | > 100 µM (inactive) | > 100 µM (inactive) | > 100 µM | 97.1 µM (inactive) | 52.8 µM (inactive) | 31.6 µM (inactive) | > 100 µM (inactive) | 41.7 µM (inactive) | 86.7 µM (inactive) | 43.2 µM (inactive) | 26.4 µM (inactive) | > 100 µM (inactive) | 11.9 µM (inactive) | 82.2 µM (inactive) | > 100 µM (inactive) | 32.7 µM (inactive) |
| O=C(O)CN1CCNCCN(CC(=O)O)CC1 | 3.42 µM (inactive) | > 100 µM (inactive) | > 100 µM (inactive) | > 100 µM (inactive) | 10.6 µM (inactive) | 3.79 µM | > 27.7 µM (inactive) | 8.38 µM (inactive) | 3.76 µM (inactive) | 3.73 µM (inactive) | > 34 µM (inactive) | 11.6 µM (inactive) | 2.44 µM (inactive) | 38.8 µM (inactive) | > 22.1 µM (inactive) | 7.23 µM (inactive) | > 69 µM (inactive) | 8.2 µM (inactive) | 10.2 µM (inactive) |
